The nature of the data set: Circular dichroism in POPC liposomes. Format: physicochemical. Conditions: 1:250 peptide:lipid.

Results on one sequence are retold here after article PMC4341838 (Biochemistry, 2015).

For SSLSLLSLSWLSLSLLSLS [SLscr2], the “Conformation by CD in POPC liposomes, in words” value is “β-sheet-like conformation”.
